IC50 data for 14 molecules are collected here from patent publication US20250163104A1, “MACROCYCLIC IMMUNOMODULATORS” (priority 2021, published 2025).

Structures are written as SMILES. Where a SMILES comes first, the peptide text is derived from it. Bridges are numbered along the chain shown (N, C = ends). [ ]: non-standard residue; d: D form. The star is where a group is joined. Phe(4-COOH) = N[C@@H](Cc1ccc(C(=O)O)cc1)C(=O)O; Bip = N[C@@H](Cc1ccc(-c2ccccc2)cc1)C(=O)O; aIle = CC[C@@H](C)[C@H](N)C(=O)O; 4Pal = N[C@@H](Cc1ccncc1)C(=O)O; Cha = N[C@@H](CC1CCCCC1)C(=O)O; Cit = NC(=O)NCCC[C@H](N)C(=O)O; dCha = N[C@H](CC1CCCCC1)C(=O)O; Carboxymethyl = O=C(O)C*; Orn = NCCC[C@H](N)C(=O)O; Dab = NCC[C@H](N)C(=O)O; Dap = NC[C@H](N)C(=O)O

For the assay, the target named is T1, human PD-1 / PD-L1-Ig binding on Jurkat cell line over-expressing human PD-1 (Jurkat-PD-1) (Homo sapiens, UniProt Q15116).
T1 construct: expressed in transfected cells; host or cells: Jurkat
T1 sequence (Q15116 25-288): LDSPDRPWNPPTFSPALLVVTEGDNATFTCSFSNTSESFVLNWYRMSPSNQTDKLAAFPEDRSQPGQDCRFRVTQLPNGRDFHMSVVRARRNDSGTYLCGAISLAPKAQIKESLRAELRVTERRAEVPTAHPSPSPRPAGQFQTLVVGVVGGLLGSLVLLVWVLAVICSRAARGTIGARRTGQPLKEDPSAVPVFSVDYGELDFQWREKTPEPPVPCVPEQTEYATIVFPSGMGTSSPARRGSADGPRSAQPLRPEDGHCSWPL
Put plainly: Jurkat-PD-1 Cell Binding High-Content Screening Assay (CBA). The following applies: Jurkat-PD-1 cells, PE-labeled PD-L1-Ig 20 nM final; read-out: Jurkat HPD1_PDL1 IC50. The class given is cell-based. The procedure, abridged: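 PE-PD-L1-Ig 20 nM final; cells in DMEM/10% FCS; cpd pre-incubation 2 h, 37° C; ligand 1 h; PFA fix + Hoechst 33342; high-content imaging read-out.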
Consider `CC[C@@H](C)[C@@H]1NC(=O)[C@H](Cc2ccc(-c3ccccc3)cc2)NC(=O)[C@H](C(C)C)NC(=O)[C@H](Cc2c[nH]c3ccccc23)NC(=O)[C@H](CC(=O)O)NC(=O)[C@H](Cc2ccc(OCC(=O)O)cc2)NC(=O)[C@H](Cc2ccncc2)NC(=O)CSC[C@@H](C(=O)N[C@@H](C)C(N)=O)NC(=O)[C@H]([C@@H](C)O)NC(=O)[C@H](C(C)C)NC(=O)[C@H](CC2CCCCC2)NC(=O)[C@H](CCN)NC(=O)[C@@H](CC2CCCCC2)NC(=O)[C@H](CCCN)NC1=O` [Compound 1628] ({CH2CO}-[4Pal]Y(Carboxymethyl)DWV[Bip][aIle][Orn][dCha][Dab][Cha]VTCA-NH2; thioether N-14), for which the IC50 (commonly the concentration needed to halve the response being measured) turned out to be 24.9 nM.

Regarding `CC[C@@H](C)[C@@H]1NC(=O)[C@H](Cc2ccc(-c3ccccc3)cc2)NC(=O)[C@H](C(C)C)NC(=O)[C@H](Cc2c[nH]c3ccccc23)NC(=O)[C@H](CC(=O)O)NC(=O)[C@H](Cc2ccncc2)NC(=O)[C@H](Cc2ccc(OCC(=O)O)cc2)NC(=O)CSC[C@@H](C(=O)N[C@@H](C)C(N)=O)NC(=O)[C@H]([C@@H](C)O)NC(=O)[C@H](C(C)C)NC(=O)[C@H](CC2CCCCC2)NC(=O)[C@H](CCN)NC(=O)[C@@H](CC2CCCCC2)NC(=O)[C@H](CCCN)NC1=O` [Compound 1629] ({CH2CO}-Y(Carboxymethyl)[4Pal]DWV[Bip][aIle][Orn][dCha][Dab][Cha]VTCA-NH2; thioether N-14), the IC50 came to 19.9 nM. With `CC[C@@H](C)[C@@H]1NC(=O)[C@H](Cc2ccc(-c3ccccc3)cc2)NC(=O)[C@H](C(C)C)NC(=O)[C@H](Cc2c[nH]c3ccccc23)NC(=O)[C@H](CC(=O)O)NC(=O)[C@H](Cc2ccncc2)NC(=O)[C@H](CN)NC(=O)CSC[C@@H](C(=O)N[C@@H](C)C(N)=O)NC(=O)[C@H]([C@@H](C)O)NC(=O)[C@H](C(C)C)NC(=O)[C@H](CC2CCCCC2)NC(=O)[C@H](CCN)NC(=O)[C@@H](CC2CCCCC2)NC(=O)[C@H](CCCN)NC1=O` [Compound 1630] ({CH2CO}-[Dap][4Pal]DWV[Bip][aIle][Orn][dCha][Dab][Cha]VTCA-NH2; thioether N-14), the IC50 was 48.3 nM. Then `CC[C@@H](C)[C@@H]1NC(=O)[C@H](Cc2ccc(-c3ccccc3)cc2)NC(=O)[C@H](C(C)C)NC(=O)[C@H](Cc2c[nH]c3ccccc23)NC(=O)[C@H](CC(=O)O)NC(=O)[C@H](Cc2ccc(O)cc2)NC(=O)[C@H](CC(N)=O)NC(=O)CSC[C@@H](C(=O)N[C@@H](C)C(N)=O)NC(=O)[C@H]([C@@H](C)O)NC(=O)[C@H](C(C)C)NC(=O)[C@H](CC2CCCCC2)NC(=O)[C@H](CCN)NC(=O)[C@@H](CC2CCCCC2)NC(=O)[C@H](CCCN)NC1=O` [Compound 1631] ({CH2CO}-NYDWV[Bip][aIle][Orn][dCha][Dab][Cha]VTCA-NH2; thioether N-14), with 44.1 nM; and `CC(C)[C@@H]1NC(=O)[C@H](Cc2c[nH]c3ccccc23)NC(=O)[C@H](CC(=O)O)NC(=O)[C@H](Cc2ccc(C(=O)O)cc2)NC(=O)[C@H](Cc2ccncc2)NC(=O)CSC[C@@H](C(=O)N[C@@H](C)C(N)=O)NC(=O)[C@H]([C@@H](C)O)NC(=O)[C@H](C(C)C)NC(=O)[C@H](CC2CCCCC2)NC(=O)[C@H](CCN)NC(=O)[C@@H](CC2CCCCC2)NC(=O)[C@H](CCCN)NC(=O)[C@H](C(C)C)NC(=O)[C@H](Cc2ccc(-c3ccccc3)cc2)NC1=O` [Compound 1632] ({CH2CO}-[4Pal][Phe(4-COOH)]DWV[Bip]V[Orn][dCha][Dab][Cha]VTCA-NH2; thioether N-14), with 15.6 nM. With `CC(C)[C@@H]1NC(=O)[C@H](Cc2c[nH]c3ccccc23)NC(=O)[C@H](CC(=O)O)NC(=O)[C@H](Cc2ccc(OCC(=O)O)cc2)NC(=O)[C@H](Cc2ccc(OCC(=O)O)cc2)NC(=O)CSC[C@@H](C(=O)N[C@@H](C)C(N)=O)NC(=O)[C@H]([C@@H](C)O)NC(=O)[C@H](C(C)C)NC(=O)[C@H](CC2CCCCC2)NC(=O)[C@H](CCN)NC(=O)[C@@H](CC2CCCCC2)NC(=O)[C@H](CCCN)NC(=O)[C@H](C(C)C)NC(=O)[C@H](Cc2ccc(-c3ccccc3)cc2)NC1=O` [Compound 1633] ({CH2CO}-Y(Carboxymethyl)Y(Carboxymethyl)DWV[Bip]V[Orn][dCha][Dab][Cha]VTCA-NH2; thioether N-14), the IC50 was 20.2 nM. Then `CC(C)[C@@H]1NC(=O)[C@H](Cc2c[nH]c3ccccc23)NC(=O)[C@H](CC(=O)O)NC(=O)[C@H](Cc2ccc(C(=O)O)cc2)NC(=O)[C@H](Cc2ccc(OCC(=O)O)cc2)NC(=O)CSC[C@@H](C(=O)N[C@@H](C)C(N)=O)NC(=O)[C@H]([C@@H](C)O)NC(=O)[C@H](C(C)C)NC(=O)[C@H](CC2CCCCC2)NC(=O)[C@H](CCN)NC(=O)[C@@H](CC2CCCCC2)NC(=O)[C@H](CCCN)NC(=O)[C@H](C(C)C)NC(=O)[C@H](Cc2ccc(-c3ccccc3)cc2)NC1=O` [Compound 1634] ({CH2CO}-Y(Carboxymethyl)[Phe(4-COOH)]DWV[Bip]V[Orn][dCha][Dab][Cha]VTCA-NH2; thioether N-14), with 20.3 nM; and `CC(C)[C@@H]1NC(=O)[C@H](Cc2c[nH]c3ccccc23)NC(=O)[C@H](CC(=O)O)NC(=O)[C@H](Cc2ccc(OCC(=O)O)cc2)NC(=O)[C@H](CN)NC(=O)CSC[C@@H](C(=O)N[C@@H](C)C(N)=O)NC(=O)[C@H]([C@@H](C)O)NC(=O)[C@H](C(C)C)NC(=O)[C@H](CC2CCCCC2)NC(=O)[C@H](CCN)NC(=O)[C@@H](CC2CCCCC2)NC(=O)[C@H](CCCN)NC(=O)[C@H](C(C)C)NC(=O)[C@H](Cc2ccc(-c3ccccc3)cc2)NC1=O` [Compound 1635] ({CH2CO}-[Dap]Y(Carboxymethyl)DWV[Bip]V[Orn][dCha][Dab][Cha]VTCA-NH2; thioether N-14), with 18.1 nM; and `CC(C)[C@@H]1NC(=O)[C@H](Cc2c[nH]c3ccccc23)NC(=O)[C@H](CC(=O)O)NC(=O)[C@H](Cc2ccc(OCC(=O)O)cc2)NC(=O)[C@H](Cc2ccncc2)NC(=O)CSC[C@@H](C(=O)N[C@@H](C)C(N)=O)NC(=O)[C@H]([C@@H](C)O)NC(=O)[C@H](C(C)C)NC(=O)[C@H](CC2CCCCC2)NC(=O)[C@H](CCN)NC(=O)[C@@H](CC2CCCCC2)NC(=O)[C@H](CCCN)NC(=O)[C@H](C(C)C)NC(=O)[C@H](Cc2ccc(-c3ccccc3)cc2)NC1=O` [Compound 1636] ({CH2CO}-[4Pal]Y(Carboxymethyl)DWV[Bip]V[Orn][dCha][Dab][Cha]VTCA-NH2; thioether N-14), with 19.7 nM. Next, `CC(C)[C@@H]1NC(=O)[C@H](Cc2c[nH]c3ccccc23)NC(=O)[C@H](CC(=O)O)NC(=O)[C@H](Cc2ccncc2)NC(=O)[C@H](Cc2ccc(OCC(=O)O)cc2)NC(=O)CSC[C@@H](C(=O)N[C@@H](C)C(N)=O)NC(=O)[C@H]([C@@H](C)O)NC(=O)[C@H](C(C)C)NC(=O)[C@H](CC2CCCCC2)NC(=O)[C@H](CCN)NC(=O)[C@@H](CC2CCCCC2)NC(=O)[C@H](CCCN)NC(=O)[C@H](C(C)C)NC(=O)[C@H](Cc2ccc(-c3ccccc3)cc2)NC1=O` [Compound 1637] ({CH2CO}-Y(Carboxymethyl)[4Pal]DWV[Bip]V[Orn][dCha][Dab][Cha]VTCA-NH2; thioether N-14): 32.7 nM; `CC(C)[C@@H]1NC(=O)[C@H](Cc2c[nH]c3ccccc23)NC(=O)[C@H](CC(=O)O)NC(=O)[C@H](Cc2ccncc2)NC(=O)[C@H](CN)NC(=O)CSC[C@@H](C(=O)N[C@@H](C)C(N)=O)NC(=O)[C@H]([C@@H](C)O)NC(=O)[C@H](C(C)C)NC(=O)[C@H](CC2CCCCC2)NC(=O)[C@H](CCN)NC(=O)[C@@H](CC2CCCCC2)NC(=O)[C@H](CCCN)NC(=O)[C@H](C(C)C)NC(=O)[C@H](Cc2ccc(-c3ccccc3)cc2)NC1=O` [Compound 1638] ({CH2CO}-[Dap][4Pal]DWV[Bip]V[Orn][dCha][Dab][Cha]VTCA-NH2; thioether N-14): 28.6 nM; `CC(C)[C@@H]1NC(=O)[C@H](Cc2c[nH]c3ccccc23)NC(=O)[C@H](CC(=O)O)NC(=O)[C@H](Cc2ccc(O)cc2)NC(=O)[C@H](CC(N)=O)NC(=O)CSC[C@@H](C(=O)N[C@@H](C)C(N)=O)NC(=O)[C@H]([C@@H](C)O)NC(=O)[C@H](C(C)C)NC(=O)[C@H](CC2CCCCC2)NC(=O)[C@H](CCN)NC(=O)[C@@H](CC2CCCCC2)NC(=O)[C@H](CCCN)NC(=O)[C@H](C(C)C)NC(=O)[C@H](Cc2ccc(-c3ccccc3)cc2)NC1=O` [Compound 1639] ({CH2CO}-NYDWV[Bip]V[Orn][dCha][Dab][Cha]VTCA-NH2; thioether N-14): 35.8 nM. Consider `CC(C)[C@@H]1NC(=O)[C@H](Cc2c[nH]c3ccccc23)NC(=O)[C@H](CC(=O)O)NC(=O)[C@H](Cc2ccc(C(=O)O)cc2)NC(=O)[C@H](Cc2ccncc2)NC(=O)CSC[C@@H](C(=O)N[C@@H](C)C(N)=O)NC(=O)[C@H]([C@@H](C)O)NC(=O)[C@H](C(C)C)NC(=O)[C@H](CC2CCCCC2)NC(=O)[C@H](CCN)NC(=O)[C@@H](CC2CCCCC2)NC(=O)[C@H](CCCN)NC(=O)[C@H](CCCNC(N)=O)NC(=O)[C@H](Cc2ccc(-c3ccccc3)cc2)NC1=O` [Compound 1640] ({CH2CO}-[4Pal][Phe(4-COOH)]DWV[Bip][Cit][Orn][dCha][Dab][Cha]VTCA-NH2; thioether N-14), for which the concentration for half-maximal inhibition (IC50) worked out at 25.7 nM. Then `CC(C)[C@@H]1NC(=O)[C@H](Cc2c[nH]c3ccccc23)NC(=O)[C@H](CC(=O)O)NC(=O)[C@H](Cc2ccc(OCC(=O)O)cc2)NC(=O)[C@H](Cc2ccc(OCC(=O)O)cc2)NC(=O)CSC[C@@H](C(=O)N[C@@H](C)C(N)=O)NC(=O)[C@H]([C@@H](C)O)NC(=O)[C@H](C(C)C)NC(=O)[C@H](CC2CCCCC2)NC(=O)[C@H](CCN)NC(=O)[C@@H](CC2CCCCC2)NC(=O)[C@H](CCCN)NC(=O)[C@H](CCCNC(N)=O)NC(=O)[C@H](Cc2ccc(-c3ccccc3)cc2)NC1=O` [Compound 1641] ({CH2CO}-Y(Carboxymethyl)Y(Carboxymethyl)DWV[Bip][Cit][Orn][dCha][Dab][Cha]VTCA-NH2; thioether N-14), with 37.1 nM.
